The text below walks through data of patent US9724344B2, “Enhanced delivery of drug compositions to treat life threatening infections” (BOARD OF REGENTS, THE UNIVERSITY OF TEXAS SYSTEM, priority 2004, dated 2017).

For orientation: aqueous solubility means the concentration that dissolves in the medium under given conditions.

Data set [1] in a line: Dissolution testing, United States Pharmacopeia 24 Type 2 apparatus (Examples 19-23). The format is physicochemical. The conditions noted are these: Avg. The protocol:
For Examples 19-23, dissolution testing is performed on the samples using a United States Pharmacopeia 24 Type 2 apparatus (Distek Dissolution System […] with a TCS0200C heater/circulator; Crescent Scientific Pvt. Ltd.; Goregaon-East, Mumbai, India).

For data set [2], the system named is airway macrophages. The data set can be described thus: Macrophage uptake of ITZ dosed via pulmonary administration. The format is in vivo. The conditions noted are these: samples taken on days 1, 3, 8 and 12. From the text:
Cells (airway macrophages) were recovered from the lung and subjected to drug extraction and analyzed by mass spectroscopy for confirmation of ITZ presence in the macrophage.

Data set [3] deals with IL-12p70. The data set can be described thus: ELISA of BAL supernatant for IL-12 elevation (inflammatory response). It counts as in vivo, mice. The conditions noted are these: pulmonary administration, compared to excipients alone and saline. The protocol: FIG. 5 is a chart depicting lung concentration levels of IL-12p70 for an embodiment of the present invention. Mean IL-12p70 concentrations measured according to Example 32 via ELISA assay of the positive control, negative control and BAL supernatants of sacrificed mice. Surgery was performed on sacrificed mice to expose the pleural cavity and trachea at the throat. A small incision was cut into the trachea and a cannula consisting of a 23 gauge needle with a sheath of plastic tubing (0.037″ outside diameter (OD) and 0.025″ ID) was inserted through the incision to the base of the trachea and clamped to seal the opening. An aliquot (0.75 mL) of phosphate buffered saline was instilled through the cannula into the lungs and then removed to wash the bronchial and alveolar surfaces. This process was repeated for a total of three washes. The phosphate buffered saline containing cells was placed into centrifuge vials and centrifuged at 300 rpm (MiniSpin Plus. Eppendorf International, Hamburg, Del.). The supernatant was removed leaving the collected cells in the pellet. The supernatant from the BAL (Bronchoalveolar Lavage) was analyzed by enzyme-linked immunosorbent assay (ELISA) for IL-12 elevation (n=2 per sample tested).
On the technique in general: An ELISA detects its analyte on a solid surface through an enzyme-linked reagent.

The conditions of data set [4]: cited from earlier work.

Bounds are passed on as bounds.

Consider `CCC(C)n1ncn(-c2ccc(N3CCN(c4ccc(OCC5COC(Cn6cncn6)(c6ccc(Cl)cc6Cl)O5)cc4)CC3)cc2)c1=O` (stereo not drawn) [Comparative Example 25], for which the “Percent Dissolved” value was determined as 3.1% in data set [1] (2 minutes); 4.8% in data set [1] (5 minutes); 9.1% in data set [1] (10 minutes); 12.7% in data set [1] (15 minutes); 15.5% in data set [1] (20 minutes); 18.2% in data set [1] (25 minutes). Besides, the “Percent Dissolved” value in data set [1] (30 minutes) is given as 19.7%; in data set [1] (60 minutes), 38.9%; in data set [1] (120 minutes), 100.0%.
In the case of `CCC(C)n1ncn(-c2ccc(N3CCN(c4ccc(OCC5COC(Cn6cncn6)(c6ccc(Cl)cc6Cl)O5)cc4)CC3)cc2)c1=O` (stereo not drawn) [ITZ, itraconazole], the “ITZ presence in airway macrophages (mass spectroscopy)” value in data set [2] was “all showed the presence of ITZ”. Moreover, in data set [3], the “IL-12 elevation in BAL supernatant” value was “does not result in IL-12 elevation”. In data set [4], the aqueous solubility is under 1 µg/mL.
